Where “and” joins values, the source holds several entries; their conditions need not be identical. Equal entries are not always repeated.
What follows are compounds tested against T1, biotinylated Aβ1-42 (Homo sapiens, UniProt P05067) (assay: Inhibition of Abeta oligomerisation (biotinylated Aβ1-42, neutravidin plate, streptavidin-HRP)). Details: inhibition of Aβ1-42 aggregation, approximately 12 nM Aβ1-42, PBS pH 7.4, 2% DMSO, 30 min RT.
T1 construct: To assure monomerisation of biotinylated Aβ1-42 (Anaspec #23523-0.5) the peptide was thoroughly monomerised; purchased Anaspec 23523-0.5
T1 sequence (P05067 672-713 limits assumed): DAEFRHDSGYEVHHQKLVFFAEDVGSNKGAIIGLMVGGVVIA
Type: biochemical

Row | IC50 | SMILES
1 | 0.631 µM | O=C(O)Cc1cc(-c2ccc(-c3cc(CC(=O)O)c(-c4ccc(-c5cccc(C(=O)O)c5)s4)s3)s2)sc1-c1ccc(-c2cccc(C(=O)O)c2)s1 [Example 65, 3-{5-[3-(Carboxymethyl)-5-{5-[4-(carboxymethyl)-5-[5-(3-carboxyphenyl)thiophen-2-yl]thiophen-2-yl]thiophen-2-yl}thiophen-2-yl]thiophen-2-yl}thiophen-2-benzoic acid]
2 | 1.58 µM | O=C(O)Cc1ccsc1-c1ccc(-c2cc(CC(=O)O)c(-c3ccc(-c4sc(-c5ccc(-c6sccc6CC(=O)O)s5)cc4CC(=O)O)s3)s2)s1 [Example 84, 2-(2-{5-[3-(Carboxymethyl)-5-{5-[3-(carboxymethyl)thiophen-2-yl]thiophen-2-yl}thiophen-2-yl]thiophen-2-yl}-5-{5-[3-(carboxymethyl)thiophen-2-yl]thiophen-2-yl}thiophen-3-yl)acetic acid]
3 | 25.1 µM | O=C(O)Cc1ccc(-c2ccc(-c3ccc(CC(=O)O)s3)s2)s1 [Example 72, 2-(5-{5-[5-(Carboxymethyl)thiophen-2-yl]thiophen-2-yl}thiophen-2-yl)acetic acid]
4 | 5.01 µM | Cn1nc(C(F)(F)F)cc1-c1cc(CC(=O)O)c(-c2ccc(-c3sc(-c4cc(C(F)(F)F)nn4C)cc3CC(=O)O)s2)s1 [Example 77, 2-(2-{5-[3-(Carboxymethyl)-5-[1-methyl-3-(trifluoromethyl)-1H-pyrazol-5-yl]thiophen-2-yl]thiophen-2-yl}-5-[1-methyl-3-(trifluoromethyl)-1H-pyrazol-5-yl]thiophen-3-yl)acetic acid]
5 | 31.6 µM | CS(=O)(=O)c1ccc(-c2cc(CC(=O)O)c(-c3ccc(-c4sc(-c5ccc(C(=O)O)s5)cc4CC(=O)O)s3)s2)cc1 [Example 75, 5-[4-(Carboxymethyl)-5-{5-[3-(carboxymethyl)-5-(4-methanesulfonylphenyl)thiophen-2-yl]thiophen-2-yl}thiophen-2-yl]thiophene-2-carboxylic acid]
6 | 20 µM | C#Cc1cc(CC(=O)O)c(-c2ccc(-c3sc(C#C)cc3CC(=O)O)s2)s1 [Example 86, 2-(2-{5-[3-(Carboxymethyl)-5-ethynylthiophen-2-yl]thiophen-2-yl}-5-ethynylthiophen-3-yl)acetic acid]
7 | 2.51 µM | COC(=O)Cc1cc(-c2ccc(C(=O)O)s2)sc1-c1ccc(-c2sc(-c3ccc(C(=O)O)s3)cc2CC(=O)OC)s1 [Example 69, 5-(5-{5-[5-(5-Carboxythiophen-2-yl)-3-(2-methoxy-2-oxoethyl)thiophen-2-yl]thiophen-2-yl}-4-(2-methoxy-2-oxoethyl)thiophen-2-yl)thiophene-2-carboxylic acid]
8 | 5.01 µM | O=C(O)Cc1cc(-c2ccc(C(=O)N3CCCC3)c(F)c2)sc1-c1ccc(-c2sc(-c3ccc(C(=O)N4CCCC4)c(F)c3)cc2CC(=O)O)s1 [Example 78, 2-(2-{5-[3-(Carboxymethyl)-5-[3-fluoro-4-(pyrrolidine-1-carbonyl)phenyl]thiophen-2-yl]thiophen-2-yl}-5-[3-fluoro-4-(pyrrolidine-1-carbonyl)phenyl]thiophen-3-yl)acetic acid]

Further lines, the compound ahead of its results:

Row | SMILES | IC50
9 | O=C(O)Cc1cc(-c2cccnc2)sc1-c1ccc(-c2sc(-c3cccnc3)cc2CC(=O)O)s1 [Example 15, 2-(2-{5-[3-(Carboxymethyl)-5-(pyridin-3-yl)thiophen-2-yl]thiophen-2-yl}-5-(pyridin-3-yl)thiophen-3-yl)acetic acid] | 50.1 µM
10 | NCCc1ccsc1-c1ccc(-c2sccc2CCN)s1 [Example 8, 2-(2-{5-[3-(2-Aminoethyl)thiophen-2-yl]thiophen-2-yl}thiophen-3-yl)ethan-1-amine] | 15.8 µM
11 | O=C(O)Cc1cccc(-c2ccc(-c3cc(CC(=O)O)c(-c4ccc(-c5sc(-c6ccc(-c7cccc(CC(=O)O)c7)s6)cc5CC(=O)O)s4)s3)s2)c1 [Example 57, 2-(2-{5-[3-(Carboxymethyl)-5-{5-[3-(carboxymethyl)phenyl]thiophen-2-yl}thiophen-2-yl]thiophen-2-yl}-5-{5-[3-(carboxymethyl)phenyl]thiophen-2-yl}thiophen-3-yl)acetic acid] | 0.398 µM
12 | O=C(O)Cc1cc(-c2cccc(C(=O)O)c2)sc1-c1ccc(-c2sc(-c3ccc(C(=O)O)s3)cc2CC(=O)O)s1 [Example 14, 5-[4-(Carboxymethyl)-5-{5-[3-(carboxymethyl)-5-(3-carboxyphenyl)thiophen-2-yl]thiophen-2-yl}thiophen-2-yl]thiophene-2-carboxylic acid] | 2 µM
13 | Cc1ccc(-c2ccc(-c3cc(CC(=O)O)c(-c4ccc(-c5sc(-c6ccc(-c7ccc(C)cc7C(=O)O)s6)cc5CC(=O)O)s4)s3)s2)c(C(=O)O)c1 [Example 63, 2-{5-[5-(5-{5-[5-(2-Carboxy-4-methylphenyl)thiophen-2-yl]-3-(carboxymethyl)thiophen-2-yl}thiophen-2-yl)-4-(carboxymethy)thiophen-2-yl]thiophen-2-yl}-5-methylbenzoic acid] | 1 µM
14 | O=C(O)CCc1cc(-c2ccc(C(=O)O)s2)sc1-c1ccc(-c2sc(-c3ccc(C(=O)O)s3)cc2CCC(=O)O)s1 [Example 53, 5-[4-(2-Carboxethyl)-5-{5-[3-(2-carboxyethyl)-5-(5-carboxythiophen-2-yl)thiophen-2-yl]thiophen-2-yl}thiophen-2-yl]thiophene-2-carboxylic acid] | 3.98 µM
15 | O=C(O)Cc1cc(-c2ccccc2C(=O)O)sc1-c1ccc(-c2sc(-c3ccccc3C(=O)O)cc2CC(=O)O)s1 [Example 11, 2-[4-(Carboxymethyl)-5-{5-[3-(carboxymethyl)-5-(2-carboxyphenyl)thiophen-2-yl]thiophen-2-yl}thiophen-2-yl]benzoic acid] | 12.6 µM
16 | CC(=O)NCCc1cc(-c2ccc(C(=O)O)s2)sc1-c1ccc(-c2sc(-c3ccc(C(=O)O)s3)cc2CCNC(C)=O)s1 [Example 7, 5-(5-{5-[5-(5-Carboxythiophen-2-yl)-3-(2-acetamidoethyl)thiophen-2-yl]thiophen-2-yl}-4-(2-acetamidoethyl)thiophen-2-yl)thiophene-2-carboxylic acid] | 3.98 µM
17 | O=C(O)Cc1cc(-c2ccc(-c3cc(CC(=O)O)c(-c4ccc(-c5ccc(C(=O)O)cc5)s4)s3)s2)sc1-c1ccc(-c2ccc(C(=O)O)cc2)s1 [Example 54, 4-{5-[3-(Carboxymethyl)-5-{5-[4-(carboxymethyl)-5-[5-(4-carboxyphenyl)thiophen-2-yl]thiophen-2-yl]thiophen-2-yl}thiophen-2-yl]thiophen-2-yl}benzoic acid] | 1.26 µM
18 | CS(=O)(=O)c1ccc(-c2sc(-c3ccc(-c4cc(CC(=O)O)c(-c5ccc(S(C)(=O)=O)cc5)s4)s3)cc2CC(=O)O)cc1 [Example 36, 2-(5-{5-[4-(Carboxymethyl)-5-(4-methanesulfonylphenyl)thiophen-2-yl]thiophen-2-yl}-2-(4-methanesulfonylphenyl)thiophen-3-yl)acetic acid] | 5.01 µM
19 | CS(=O)(=O)c1ccc(-c2cc(CCC(=O)O)c(-c3ccc(-c4sc(-c5ccc(S(C)(=O)=O)cc5)cc4CCC(=O)O)s3)s2)cc1 [Example 51, 3-(2-{5-[3-(2-Carboxyethyl)-5-(4-methanesulfonylphenyl)thiophen-2-yl]thiophen-2-yl}-5-(4-methanesulfonylphenyl)thiophen-3-yl)propanoic acid] | 1.58 µM and 7.94 µM

Reference: US9359311B2, “Substituted aromatic oligomers” (NEUROSCIOS GMBH, priority 2011, dated 2016)
